# From patent US9833497B2, “Human originated EGF domain proteins and use of the same” (CHENGDU SOURCEBIO LIMITED-LIABILITY COMPANY, priority 2013, dated 2017)
# Tests used:
# Assay type in all cases: cell-based
# E. coli DH5α = assay: Antibacterial activity: MIC and growth curve against E. coli DH5α in 96-well plate; conditions: minimal inhibitory concentration against E. coli DH5α; 96-well plate, 5×10^5 CFU/mL, 37° C., judged after 8 h
# Method in brief: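 Log-phase bacteria (OD600 ~0.5) resuspended in LB at 5×10^5 CFU/mL, exposed to recombinant protein at 50, 25, 12.5 μg/mL final in triplicate, 37 °C shaking at 175 rpm. OD600 read every 30 min; MIC is lowest concentration showing no growth.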
# E. coli BL21 = assay: MIC against Gram-negative bacteria: E. coli BL21; conditions: for MIC against E. coli BL21 / MIC (μg/mL) E. coli BL21 / MIC E. coli BL21: 5×10^5 CFU/mL
# Method in brief: (§1)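 Bacteria grown in LB at 37° C with shaking to McFarland 0.5, pelleted and resuspended in fresh LB, then seeded at 5×10^5 CFU/mL per well. Purified recombinant human EGF domain proteins were two-fold serially diluted in triplicate and plates shaken at 37° C, 175 rpm. MIC is the lowest protein concentration with no bacterial growth.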
# Pseudomonas aeruginosa = assay: MIC against Gram-negative bacteria: Pseudomonas aeruginosa; conditions: for MIC against P. aeruginosa / MIC (μg/mL) P. aeruginosa / MIC P. aeruginosa: 5×10^5 CFU/mL
# Method in brief: as §1
# Klebsiella pneumonia = assay: MIC against Gram-negative bacteria: Klebsiella pneumonia; conditions: for MIC against K. pneumonia / MIC (μg/mL) K. pneumonia / MIC K. pneumonia: 5×10^5 CFU/mL
# Method in brief: as §1
# Enterobacter cloacae = assay: MIC against Gram-negative bacteria: Enterobacter cloacae; conditions: for MIC against E. cloacae / MIC (μg/mL) E. cloacae / MIC E. cloacae: 5×10^5 CFU/mL
# Method in brief: as §1
# Aeromonas hydrophila = assay: MIC against Gram-negative bacteria: Aeromonas hydrophila; conditions: for MIC against A. hydrophila / MIC (μg/mL) A. hydrophila / MIC A. hydrophila: 5×10^5 CFU/mL
# Method in brief: as §1
# Citrobacter diversus = assay: MIC against Gram-negative bacteria: Citrobacter diversus; conditions: for MIC against C. diversus / MIC (μg/mL) C. diversus / MIC C. diversus: 5×10^5 CFU/mL
# Method in brief: as §1
# Moraxella catarrhalis = assay: MIC against Gram-negative bacteria: Moraxella catarrhalis; conditions: for MIC against M. catarrhalis / MIC (μg/mL) M. catarrhalis / MIC M. catarrhalis: 5×10^5 CFU/mL
# Method in brief: as §1
# Proteus mirabilis = assay: MIC against Gram-negative bacteria: Proteus mirabilis; conditions: for MIC against P. mirabilis / MIC (μg/mL) P. mirabilis / MIC P. mirabilis: 5×10^5 CFU/mL
# Method in brief: as §1
# Proteus vulgaris = assay: MIC against Gram-negative bacteria: Proteus vulgaris; conditions: for MIC against P. vulgaris / MIC (μg/mL) P. vulgaris / MIC P. vulgaris: 5×10^5 CFU/mL
# Method in brief: as §1
# Serratia marcescens = assay: MIC against Gram-negative bacteria: Serratia marcescens; conditions: for MIC against S. marcescens / MIC (μg/mL) S. marcescens / MIC S. marcescens: 5×10^5 CFU/mL
# Method in brief: as §1
# [1] = E. coli BL21, 10 h cultivation at 37° C.
# [2] = P. aeruginosa, 10 h cultivation at 37° C.
# [3] = K. pneumonia, 10 h cultivation at 37° C.
# [4] = E. cloacae, 10 h cultivation at 37° C.
# [5] = A. hydrophila, 10 h cultivation at 37° C.
# [6] = C. diversus, 10 h cultivation at 37° C.
# [7] = M. catarrhalis, 10 h cultivation at 37° C.
# [8] = P. mirabilis, 10 h cultivation at 37° C.
# [9] = P. vulgaris, 10 h cultivation at 37° C.
# [10] = S. marcescens, 10 h cultivation at 37° C.
# [11] = 10 h cultivation at 37° C., two-fold serial dilution
substance,measurement,setting,value
PRT518 (CACPLNIPSNNFSPTCHLDRSLGLICDGCPVGYTGPRCERCAEGYFGQPSVPGGSCQP; listed as Homo sapiens),MIC,E. coli DH5α,50 µg/mL
same,MIC against E. coli BL21,"E. coli BL21; 96-well plate, 37° C., 10 h",25 µg/mL
same,MIC against P. aeruginosa,"Pseudomonas aeruginosa; 96-well plate, 37° C., 10 h",12.5 µg/mL
same,MIC against K. pneumonia,"Klebsiella pneumonia; 96-well plate, 37° C., 10 h",25 µg/mL
same,MIC against E. cloacae,"Enterobacter cloacae; 96-well plate, 37° C., 10 h",50 µg/mL
same,MIC against A. hydrophila,"Aeromonas hydrophila; 96-well plate, 37° C., 10 h",25 µg/mL
same,MIC against C. diversus,"Citrobacter diversus; 96-well plate, 37° C., 10 h",12.5 µg/mL
same,MIC against M. catarrhalis,"Moraxella catarrhalis; 96-well plate, 37° C., 10 h",25 µg/mL
same,MIC against P. mirabilis,"Proteus mirabilis; 96-well plate, 37° C., 10 h",12.5 µg/mL
same,MIC against P. vulgaris,"Proteus vulgaris; 96-well plate, 37° C., 10 h",25 µg/mL
same,MIC against S. marcescens,"Serratia marcescens; 96-well plate, 37° C., 10 h",12.5 µg/mL
PRT222 (DVDECAQALHDCRPSQDCHNLPGSYQCTCPDGYRKIGPECV; listed as Homo sapiens),MIC,E. coli DH5α,50 µg/mL
same,MIC (μg/mL) E. coli BL21,E. coli BL21; [1],12.5 µg/mL
same,MIC (μg/mL) P. aeruginosa,Pseudomonas aeruginosa; [2],12.5 µg/mL
same,MIC (μg/mL) K. pneumonia,Klebsiella pneumonia; [3],12.5 µg/mL
same,MIC (μg/mL) E. cloacae,Enterobacter cloacae; [4],25 µg/mL
same,MIC (μg/mL) A. hydrophila,Aeromonas hydrophila; [5],12.5 µg/mL
same,MIC (μg/mL) C. diversus,Citrobacter diversus; [6],25 µg/mL
same,MIC (μg/mL) M. catarrhalis,Moraxella catarrhalis; [7],12.5 µg/mL
same,MIC (μg/mL) P. mirabilis,Proteus mirabilis; [8],25 µg/mL
same,MIC (μg/mL) P. vulgaris,Proteus vulgaris; [9],12.5 µg/mL
same,MIC (μg/mL) S. marcescens,Serratia marcescens; [10],25 µg/mL
PRT153 (DCLACQGGSQRPCSGNGHCSGDGSRQGDGSCRCHMGYQGPLCT; listed as Homo sapiens),MIC,E. coli DH5α,12.5 µg/mL
same,MIC (μg/mL) E. coli BL21,E. coli BL21; [1],100 µg/mL
same,MIC (μg/mL) P. aeruginosa,Pseudomonas aeruginosa; [2],50 µg/mL
same,MIC (μg/mL) K. pneumonia,Klebsiella pneumonia; [3],12.5 µg/mL
same,MIC (μg/mL) E. cloacae,Enterobacter cloacae; [4],25 µg/mL
same,MIC (μg/mL) A. hydrophila,Aeromonas hydrophila; [5],50 µg/mL
same,MIC (μg/mL) C. diversus,Citrobacter diversus; [6],25 µg/mL
same,MIC (μg/mL) M. catarrhalis,Moraxella catarrhalis; [7],12.5 µg/mL
same,MIC (μg/mL) P. mirabilis,Proteus mirabilis; [8],50 µg/mL
same,MIC (μg/mL) P. vulgaris,Proteus vulgaris; [9],12.5 µg/mL
same,MIC (μg/mL) S. marcescens,Serratia marcescens; [10],50 µg/mL
PRT1063 (ELSPCRINNGGCQDLCLLTHQGHVNCSCRGGRILQDDLTCR; listed as Homo sapiens),MIC,E. coli DH5α,12.5 µg/mL
same,MIC E. coli BL21,E. coli BL21; [11],25 µg/mL
same,MIC P. aeruginosa,Pseudomonas aeruginosa; [11],50 µg/mL
same,MIC K. pneumonia,Klebsiella pneumonia; [11],25 µg/mL
same,MIC E. cloacae,Enterobacter cloacae; [11],12.5 µg/mL
same,MIC A. hydrophila,Aeromonas hydrophila; [11],50 µg/mL
same,MIC C. diversus,Citrobacter diversus; [11],12.5 µg/mL
same,MIC M. catarrhalis,Moraxella catarrhalis; [11],50 µg/mL
same,MIC P. mirabilis,Proteus mirabilis; [11],25 µg/mL
same,MIC P. vulgaris,Proteus vulgaris; [11],25 µg/mL
same,MIC S. marcescens,Serratia marcescens; [11],12.5 µg/mL
PRT1059 (SDSECPLSHDGYCLHDGVCMYIEALDKYACNCVVGYIGERCQ; listed as Homo sapiens),MIC,E. coli DH5α,50 µg/mL
same,MIC E. coli BL21,E. coli BL21; [11],12.5 µg/mL
same,MIC P. aeruginosa,Pseudomonas aeruginosa; [11],50 µg/mL
same,MIC K. pneumonia,Klebsiella pneumonia; [11],12.5 µg/mL
same,MIC E. cloacae,Enterobacter cloacae; [11],25 µg/mL
same,MIC A. hydrophila,Aeromonas hydrophila; [11],25 µg/mL
same,MIC C. diversus,Citrobacter diversus; [11],50 µg/mL
same,MIC M. catarrhalis,Moraxella catarrhalis; [11],12.5 µg/mL
same,MIC P. mirabilis,Proteus mirabilis; [11],12.5 µg/mL
same,MIC P. vulgaris,Proteus vulgaris; [11],25 µg/mL
same,MIC S. marcescens,Serratia marcescens; [11],12.5 µg/mL
PRT1162 (DIDDCILNACEHNSTCKDLHLSYQCVCLSDWEGNFCE; listed as Homo sapiens),MIC,E. coli DH5α,12.5 µg/mL
same,MIC E. coli BL21,E. coli BL21; [11],50 µg/mL
same,MIC P. aeruginosa,Pseudomonas aeruginosa; [11],12.5 µg/mL
same,MIC K. pneumonia,Klebsiella pneumonia; [11],50 µg/mL
same,MIC E. cloacae,Enterobacter cloacae; [11],12.5 µg/mL
same,MIC A. hydrophila,Aeromonas hydrophila; [11],50 µg/mL
same,MIC C. diversus,Citrobacter diversus; [11],25 µg/mL
same,MIC M. catarrhalis,Moraxella catarrhalis; [11],12.5 µg/mL
same,MIC P. mirabilis,Proteus mirabilis; [11],25 µg/mL
same,MIC P. vulgaris,Proteus vulgaris; [11],50 µg/mL
same,MIC S. marcescens,Serratia marcescens; [11],25 µg/mL
PRT1015 (DVNECFQDPGPCPKGTSCHNTLGSFQCLCPVGQEGPRCE; listed as Homo sapiens),MIC,E. coli DH5α,12.5 µg/mL
same,MIC,E. coli BL21; [1],50 µg/mL
same,MIC,Pseudomonas aeruginosa; [2],12.5 µg/mL
same,MIC,Klebsiella pneumonia; [3],50 µg/mL
same,MIC,Enterobacter cloacae; [4],12.5 µg/mL
same,MIC,Aeromonas hydrophila; [5],25 µg/mL
same,MIC,Citrobacter diversus; [6],50 µg/mL
same,MIC,Moraxella catarrhalis; [7],12.5 µg/mL
same,MIC,Proteus mirabilis; [8],50 µg/mL
same,MIC,Proteus vulgaris; [9],12.5 µg/mL
same,MIC,Serratia marcescens; [10],50 µg/mL
PRT108 (VKDHCSKHSPCQKGGTCVNMPSGPHCLCPQHLTGNHCQ; listed as Homo sapiens),MIC,E. coli DH5α,50 µg/mL
same,MIC (μg/mL) E. coli BL21,"E. coli BL21; E. coli BL21, 96-well plate, 37° C., 10 h",12.5 µg/mL
same,MIC (μg/mL) P. aeruginosa,"Pseudomonas aeruginosa; Pseudomonas aeruginosa, 96-well plate, 37° C., 10 h",25 µg/mL
same,MIC (μg/mL) K. pneumonia,"Klebsiella pneumonia; Klebsiella pneumonia, 96-well plate, 37° C., 10 h",50 µg/mL
same,MIC (μg/mL) E. cloacae,"Enterobacter cloacae; Enterobacter cloacae, 96-well plate, 37° C., 10 h",25 µg/mL
same,MIC (μg/mL) A. hydrophila,"Aeromonas hydrophila; Aeromonas hydrophila, 96-well plate, 37° C., 10 h",12.5 µg/mL
same,MIC (μg/mL) C. diversus,"Citrobacter diversus; Citrobacter diversus, 96-well plate, 37° C., 10 h",25 µg/mL
same,MIC (μg/mL) M. catarrhalis,"Moraxella catarrhalis; Moraxella catarrhalis, 96-well plate, 37° C., 10 h",50 µg/mL
same,MIC (μg/mL) P. mirabilis,"Proteus mirabilis; Proteus mirabilis, 96-well plate, 37° C., 10 h",12.5 µg/mL
same,MIC (μg/mL) P. vulgaris,"Proteus vulgaris; Proteus vulgaris, 96-well plate, 37° C., 10 h",12.5 µg/mL
same,MIC (μg/mL) S. marcescens,"Serratia marcescens; Serratia marcescens, 96-well plate, 37° C., 10 h",12.5 µg/mL
PRT685 (DVNECLEGDFCFPHGECLNTDGSFACTCAPGYRPGPRGASCL; listed as Homo sapiens),MIC,E. coli DH5α,50 µg/mL
same,MIC E. coli BL21,"E. coli BL21; 96-well plate, 37° C., 10 h",25 µg/mL
same,MIC P. aeruginosa,"Pseudomonas aeruginosa; 96-well plate, 37° C., 10 h",12.5 µg/mL
same,MIC K. pneumonia,"Klebsiella pneumonia; 96-well plate, 37° C., 10 h",50 µg/mL
same,MIC E. cloacae,"Enterobacter cloacae; 96-well plate, 37° C., 10 h",12.5 µg/mL
same,MIC A. hydrophila,"Aeromonas hydrophila; 96-well plate, 37° C., 10 h",50 µg/mL
same,MIC C. diversus,"Citrobacter diversus; 96-well plate, 37° C., 10 h",12.5 µg/mL
same,MIC M. catarrhalis,"Moraxella catarrhalis; 96-well plate, 37° C., 10 h",50 µg/mL
same,MIC P. mirabilis,"Proteus mirabilis; 96-well plate, 37° C., 10 h",25 µg/mL
same,MIC P. vulgaris,"Proteus vulgaris; 96-well plate, 37° C., 10 h",50 µg/mL
same,MIC S. marcescens,"Serratia marcescens; 96-well plate, 37° C., 10 h",50 µg/mL
PRT1396 (LGADCAKAACPVLCSGNGQYSKGTCQCYSGWKGAECD; listed as Homo sapiens),MIC,E. coli DH5α,12.5 µg/mL
same,MIC against E. coli BL21,E. coli BL21; [1],12.5 µg/mL
same,MIC against P. aeruginosa,"Pseudomonas aeruginosa; Pseudomonas aeruginosa, 10 h cultivation at 37° C.",12.5 µg/mL
same,MIC against K. pneumonia,"Klebsiella pneumonia; Klebsiella pneumonia, 10 h cultivation at 37° C.",12.5 µg/mL
same,MIC against E. cloacae,"Enterobacter cloacae; Enterobacter cloacae, 10 h cultivation at 37° C.",25 µg/mL
same,MIC against A. hydrophila,"Aeromonas hydrophila; Aeromonas hydrophila, 10 h cultivation at 37° C.",25 µg/mL
same,MIC against C. diversus,"Citrobacter diversus; Citrobacter diversus, 10 h cultivation at 37° C.",12.5 µg/mL
same,MIC against M. catarrhalis,"Moraxella catarrhalis; Moraxella catarrhalis, 10 h cultivation at 37° C.",25 µg/mL
same,MIC against P. mirabilis,"Proteus mirabilis; Proteus mirabilis, 10 h cultivation at 37° C.",12.5 µg/mL
same,MIC against P. vulgaris,"Proteus vulgaris; Proteus vulgaris, 10 h cultivation at 37° C.",25 µg/mL
same,MIC against S. marcescens,"Serratia marcescens; Serratia marcescens, 10 h cultivation at 37° C.",12.5 µg/mL
